One block for each compound: values may come before it.
Assays:
[1] = target: T1, Serine/threonine-protein kinase ULK1 (Homo sapiens, UniProt O75385); experiment: Inhibition of ATG13 binding to full-length ULK1 (unknown origin) expressed in HEK293T cells preincubated for 15 mins followed by human C-terminal FLAG-tagged ATG13 addition measured after 30 mins by Alphascreen assay; format: cell-based
T1 sequence (O75385 whole entry): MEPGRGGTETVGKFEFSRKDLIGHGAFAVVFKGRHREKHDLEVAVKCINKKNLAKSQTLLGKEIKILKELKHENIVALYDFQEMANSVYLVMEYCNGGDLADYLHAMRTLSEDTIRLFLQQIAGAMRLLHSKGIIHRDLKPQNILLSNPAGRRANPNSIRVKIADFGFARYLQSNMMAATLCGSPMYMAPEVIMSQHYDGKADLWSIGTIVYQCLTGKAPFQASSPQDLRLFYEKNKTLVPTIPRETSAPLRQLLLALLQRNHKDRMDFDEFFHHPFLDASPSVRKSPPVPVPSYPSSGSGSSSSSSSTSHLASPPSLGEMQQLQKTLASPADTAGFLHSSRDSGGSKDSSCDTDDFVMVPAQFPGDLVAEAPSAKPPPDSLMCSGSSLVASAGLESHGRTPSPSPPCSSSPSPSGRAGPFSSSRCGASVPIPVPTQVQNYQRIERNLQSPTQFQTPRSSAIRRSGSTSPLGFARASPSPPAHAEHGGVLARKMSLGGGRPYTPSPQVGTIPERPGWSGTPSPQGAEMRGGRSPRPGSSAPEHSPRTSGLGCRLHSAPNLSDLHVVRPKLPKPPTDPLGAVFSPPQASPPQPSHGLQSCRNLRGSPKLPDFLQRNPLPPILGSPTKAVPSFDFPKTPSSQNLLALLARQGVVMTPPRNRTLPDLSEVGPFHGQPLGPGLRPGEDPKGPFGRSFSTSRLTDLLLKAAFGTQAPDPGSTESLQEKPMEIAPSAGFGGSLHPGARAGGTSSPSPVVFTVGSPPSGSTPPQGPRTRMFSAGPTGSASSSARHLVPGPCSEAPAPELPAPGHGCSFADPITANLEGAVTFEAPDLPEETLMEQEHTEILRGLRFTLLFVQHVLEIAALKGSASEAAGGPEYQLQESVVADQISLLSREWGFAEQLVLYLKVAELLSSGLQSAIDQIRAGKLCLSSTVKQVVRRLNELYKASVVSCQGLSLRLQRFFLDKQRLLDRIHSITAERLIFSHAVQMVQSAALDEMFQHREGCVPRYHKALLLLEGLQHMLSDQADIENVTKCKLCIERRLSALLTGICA

[2] = Stability in rat microsomes; format: ADME, Microsome
[3] = target: Cytochrome P450 2D6 (Homo sapiens, UniProt P10635); experiment: Inhibition of CYP2D6 (unknown origin) at 10 uM; format: ADME
Chain of Cytochrome P450 2D6 (P10635 whole entry): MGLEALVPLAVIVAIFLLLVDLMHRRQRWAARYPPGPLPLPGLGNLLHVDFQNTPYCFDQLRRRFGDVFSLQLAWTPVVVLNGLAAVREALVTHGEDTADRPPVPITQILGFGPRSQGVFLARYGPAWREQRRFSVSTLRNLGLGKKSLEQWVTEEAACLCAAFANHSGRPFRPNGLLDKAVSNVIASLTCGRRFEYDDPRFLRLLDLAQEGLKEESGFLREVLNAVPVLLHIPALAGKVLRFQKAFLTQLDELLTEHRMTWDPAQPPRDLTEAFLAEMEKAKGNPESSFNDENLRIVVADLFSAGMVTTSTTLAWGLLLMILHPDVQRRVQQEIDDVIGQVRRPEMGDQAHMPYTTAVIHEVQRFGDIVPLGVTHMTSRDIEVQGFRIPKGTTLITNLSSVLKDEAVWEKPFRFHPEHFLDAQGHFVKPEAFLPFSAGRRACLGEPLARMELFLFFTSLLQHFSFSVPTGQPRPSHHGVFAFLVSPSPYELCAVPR

[4] = target: T2, Cytochrome P450 1A2 (Homo sapiens, UniProt P05177); experiment: Inhibition of CYP1A2 (unknown origin) at 10 uM; format: ADME
T2 sequence (P05177 whole entry): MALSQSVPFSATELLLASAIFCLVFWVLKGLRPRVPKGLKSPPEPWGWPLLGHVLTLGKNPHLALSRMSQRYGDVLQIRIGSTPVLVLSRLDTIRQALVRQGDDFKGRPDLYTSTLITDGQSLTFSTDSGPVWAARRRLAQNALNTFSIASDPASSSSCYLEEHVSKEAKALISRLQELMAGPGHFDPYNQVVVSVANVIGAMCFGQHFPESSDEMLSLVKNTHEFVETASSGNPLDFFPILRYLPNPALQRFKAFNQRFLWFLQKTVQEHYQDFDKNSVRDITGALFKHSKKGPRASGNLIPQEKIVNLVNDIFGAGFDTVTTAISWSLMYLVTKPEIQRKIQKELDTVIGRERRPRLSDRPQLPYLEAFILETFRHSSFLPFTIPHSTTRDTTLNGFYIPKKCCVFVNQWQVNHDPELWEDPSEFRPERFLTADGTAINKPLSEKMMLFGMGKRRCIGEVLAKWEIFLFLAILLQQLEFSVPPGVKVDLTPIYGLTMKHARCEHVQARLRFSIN

[5] = target: Cytochrome P450 2C9 (Homo sapiens, UniProt P11712); experiment: Inhibition of CYP2C9 (unknown origin) at 10 uM; format: ADME
Chain of Cytochrome P450 2C9 (P11712 whole entry): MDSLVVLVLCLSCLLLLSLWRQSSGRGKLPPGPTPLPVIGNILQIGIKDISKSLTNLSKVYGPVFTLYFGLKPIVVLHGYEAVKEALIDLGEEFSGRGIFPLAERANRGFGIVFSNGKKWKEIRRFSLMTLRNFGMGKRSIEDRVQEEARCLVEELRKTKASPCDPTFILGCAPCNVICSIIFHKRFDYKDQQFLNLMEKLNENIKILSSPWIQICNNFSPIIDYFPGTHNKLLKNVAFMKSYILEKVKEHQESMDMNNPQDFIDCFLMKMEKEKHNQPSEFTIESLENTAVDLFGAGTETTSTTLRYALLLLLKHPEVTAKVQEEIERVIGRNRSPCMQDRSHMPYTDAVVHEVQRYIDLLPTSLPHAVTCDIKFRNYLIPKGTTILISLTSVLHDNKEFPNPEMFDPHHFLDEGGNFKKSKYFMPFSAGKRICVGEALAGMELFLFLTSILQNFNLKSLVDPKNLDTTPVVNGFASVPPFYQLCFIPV

[6] = target: Cytochrome P450 3A4 (Homo sapiens, UniProt P08684); experiment: Inhibition of CYP3A4 (unknown origin) at 10 uM; format: ADME
Chain of Cytochrome P450 3A4 (P08684 whole entry): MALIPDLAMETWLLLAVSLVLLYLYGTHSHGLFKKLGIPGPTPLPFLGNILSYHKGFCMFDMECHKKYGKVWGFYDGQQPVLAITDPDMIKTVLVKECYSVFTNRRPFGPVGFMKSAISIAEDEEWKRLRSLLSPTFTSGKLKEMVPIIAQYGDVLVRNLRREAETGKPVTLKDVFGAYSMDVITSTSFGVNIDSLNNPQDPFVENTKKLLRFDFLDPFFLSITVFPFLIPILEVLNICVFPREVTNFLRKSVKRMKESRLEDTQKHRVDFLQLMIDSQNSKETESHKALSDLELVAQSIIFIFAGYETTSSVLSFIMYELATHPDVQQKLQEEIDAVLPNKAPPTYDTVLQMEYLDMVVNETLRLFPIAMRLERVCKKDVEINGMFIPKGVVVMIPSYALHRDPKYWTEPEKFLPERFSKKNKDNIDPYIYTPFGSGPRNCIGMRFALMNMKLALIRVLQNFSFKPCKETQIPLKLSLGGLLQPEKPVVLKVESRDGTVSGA

[7] = Stability in mouse microsomes; format: ADME, Microsome
[8] = Stability in human microsomes; format: ADME, Microsome
[9] = Half life in human microsomes; format: ADME, Microsome

SMILES: Nc1n[nH]c2ccc(NC(=O)[C@H]3CC[C@@H](N)CC3)cc12
IC50 [1]: 1490 nM

SMILES: O=C(Nc1ccc2[nH]nc(Nc3cccc4ccccc34)c2c1)C1CCN1 (stereo unspecified)
IC50 [1]: 4940 nM

SMILES: NC1CCCC(C(=O)Nc2ccc3[nH]nc(NC(=O)c4ccccc4)c3c2)C1 (stereo unspecified)
IC50 [1]: 242 nM

SMILES: COc1ccccc1Nc1n[nH]c2ccc(NC(=O)C3CCCC(N)C3)cc12 (stereo unspecified)
Stability [2]: Stable
inhibition (INH) [3]: Not Active
inhibition (INH) [4]: Not Active
IC50 [1]: 110 nM
inhibition (INH) [5]: Not Active
inhibition (INH) [6]: Not Active
Stability [7]: Stable
Stability [8]: Stable

SMILES: Nc1n[nH]c2ccc(NC(=O)C3CCCCN3)cc12 (racemic)
IC50 [1]: 840 nM

SMILES: COC(=O)c1cccc(Nc2n[nH]c3ccc(NC(=O)C4CCCC(N)C4)cc23)c1 (stereo unspecified)
IC50 [1]: 183 nM

SMILES: NC1CCCC(C(=O)Nc2ccc3[nH]nc(Nc4cccc5ccccc45)c3c2)C1 (mixture of isomers)
Stability [2]: Stable
inhibition (INH) [3]: Not Active
inhibition (INH) [4]: Not Active
inhibition (INH) [5]: Not Active
inhibition (INH) [6]: Not Active
Stability [7]: Stable
Stability [8]: Stable

SMILES: N[C@H]1CCC[C@@H](C(=O)Nc2ccc3[nH]nc(Nc4cccc5ccccc45)c3c2)C1
inhibition (INH) [3]: Not Active
inhibition (INH) [4]: Not Active
inhibition (INH) [5]: Not Active
inhibition (INH) [6]: Not Active
half-life [9]: 3.73 h

SMILES: NC1CCCC(C(=O)Nc2ccc3[nH]nc(Nc4ccc(Br)cc4)c3c2)C1 (stereo unspecified)
IC50 [1]: 416 nM

SMILES: NC1CCCC(C(=O)Nc2ccc3[nH]nc(Nc4cccc(C(F)(F)F)c4)c3c2)C1 (stereo unspecified)
IC50 [1]: 288 nM

SMILES: Nc1n[nH]c2ccc(NC(=O)C3CCCNC3)cc12 (racemic)
IC50 [1]: 670 nM

SMILES: NC1CCCC(C(=O)Nc2ccc3[nH]nc(Nc4ccnc5ccccc45)c3c2)C1 (stereo unspecified)
IC50 [1]: 239 nM

The remaining lines, values ahead:

IC50 [1]: 477 nM
SMILES: COc1ccc(CNc2n[nH]c3ccc(NC(=O)C4CCCC(N)C4)cc23)cc1 (stereo unspecified)

IC50 [1]: 40 nM
SMILES: NC1CCCC(C(=O)Nc2ccc3[nH]nc(Nc4cccc5cnccc45)c3c2)C1 (stereo unspecified)

Stability [2]: Stable
inhibition (INH) [3]: Not Active
inhibition (INH) [4]: Not Active
IC50 [1]: 315 nM
inhibition (INH) [5]: Not Active
inhibition (INH) [6]: Not Active
Stability [7]: Stable
Stability [8]: Stable
SMILES: O=C(Nc1ccc2[nH]nc(Nc3cccc4ccccc34)c2c1)C1CCNCC1

IC50 [1]: 2730 nM
SMILES: NC1CCCC(C(=O)Nc2ccc3[nH]nc(Nc4ccccc4)c3c2)C1 (stereo unspecified)

IC50 [1]: 4230 nM
SMILES: CN(C)C1CCCC(C(=O)Nc2ccc3[nH]nc(Nc4cccc5ccccc45)c3c2)C1 (stereo unspecified)

IC50 [1]: 1830 nM
SMILES: O=C(Nc1ccc2[nH]nc(Nc3cccc4ccccc34)c2c1)C1CCOCC1

IC50 [1]: 18100 nM
SMILES: Nc1cccc(C(=O)Nc2ccc3[nH]nc(N)c3c2)c1

IC50 [1]: 560 nM
SMILES: Nc1n[nH]c2ccc(NC(=O)C3CCNCC3)cc12

IC50 [1]: 14000 nM
SMILES: Nc1n[nH]c2ccc(NC(=O)[C@H]3CC[C@H](N)CC3)cc12

IC50 [1]: > 33000 nM
SMILES: NCCCC(=O)Nc1ccc2[nH]nc(N)c2c1

Reference: ChEMBL document CHEMBL4130592, “In Silico HTS and Structure Based Optimization of Indazole-Derived ULK1 Inhibitors” (ACS Med Chem Lett, 2017)
